ChEMBL document CHEMBL1157033, “Developing a complete pharmacology for AMPA receptors: a perspective on subtype-selective ligands” (Bioorg Med Chem, 2010)

Legend:
Glutamate receptor 1 [1] = molecular target: T1, Glutamate receptor 1 (Homo sapiens, UniProt P42261); assay: Agonist activity at recombinant GluA1 receptor flip isoform expressed in Xenopus oocytes; assay type: functional, cell-based, Oocyte
Glutamate receptor 3 [2] = molecular target: T2, Glutamate receptor 3 (Homo sapiens, UniProt P42263); assay: Agonist activity at recombinant GluA3 receptor flip isoform expressed in Xenopus oocytes; assay type: functional, cell-based, Oocyte
T2 sequence (P42263 whole entry, canonical isoform): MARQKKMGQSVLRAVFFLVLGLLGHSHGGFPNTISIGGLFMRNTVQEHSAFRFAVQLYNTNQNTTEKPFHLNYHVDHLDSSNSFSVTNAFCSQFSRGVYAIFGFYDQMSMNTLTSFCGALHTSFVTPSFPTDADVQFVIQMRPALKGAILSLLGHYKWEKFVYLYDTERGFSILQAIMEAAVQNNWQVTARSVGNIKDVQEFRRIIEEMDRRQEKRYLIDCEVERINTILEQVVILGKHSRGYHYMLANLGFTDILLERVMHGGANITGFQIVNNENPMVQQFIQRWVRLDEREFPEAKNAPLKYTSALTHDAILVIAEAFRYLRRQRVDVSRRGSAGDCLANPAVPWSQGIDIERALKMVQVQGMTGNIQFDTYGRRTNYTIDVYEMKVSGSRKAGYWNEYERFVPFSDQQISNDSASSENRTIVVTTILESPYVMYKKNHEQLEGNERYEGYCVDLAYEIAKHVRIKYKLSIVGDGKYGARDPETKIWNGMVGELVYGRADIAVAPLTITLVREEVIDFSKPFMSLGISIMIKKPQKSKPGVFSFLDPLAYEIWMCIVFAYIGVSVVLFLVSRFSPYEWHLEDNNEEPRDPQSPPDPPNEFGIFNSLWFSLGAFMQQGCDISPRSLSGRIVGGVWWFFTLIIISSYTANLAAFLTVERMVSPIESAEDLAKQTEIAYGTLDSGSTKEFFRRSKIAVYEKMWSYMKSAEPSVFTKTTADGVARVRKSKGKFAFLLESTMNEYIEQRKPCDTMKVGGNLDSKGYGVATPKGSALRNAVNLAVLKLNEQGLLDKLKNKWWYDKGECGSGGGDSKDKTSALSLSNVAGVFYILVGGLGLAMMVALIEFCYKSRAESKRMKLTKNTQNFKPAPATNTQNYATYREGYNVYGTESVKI

Glutamate receptor 3 [3] = molecular target: T2, Glutamate receptor 3; assay: Agonist activity at recombinant GluA3 receptor expressed in Xenopus oocytes; assay type: functional, cell-based, Oocyte
Glutamate receptor 1 [4] = molecular target: T1, Glutamate receptor 1; assay: Agonist activity at recombinant GluA1 receptor expressed in Xenopus oocytes; assay type: functional, cell-based, Oocyte
[5] = Agonist activity at recombinant GluA4 receptor flip isoform expressed in Xenopus oocytes; assay type: functional, cell-based; details: Oocyte
Glutamate receptor 1 [6] = molecular target: T1, Glutamate receptor 1
Glutamate receptor 3 [7] = molecular target: T2, Glutamate receptor 3; assay: Agonist activity at recombinant GluA3 receptor flop isoform expressed in Xenopus oocytes; assay type: functional, cell-based, Oocyte
[8] = Agonist activity at recombinant GluA4 receptor flop isoform expressed in Xenopus oocytes; assay type: functional, cell-based; details: Oocyte
[9] = Antagonist activity at recombinant GluA2A4 receptor flip isoform expressed in Xenopus oocytes; assay type: functional; details: Xenopus laevis, Oocyte
Oocyte [10] = assay: Activity at recombinant GluA2A4 receptor flip isoform expressed in Xenopus oocytes assessed as potentiation of glutamate-induced current at 5 mM relative to control; assay type: cell-based
Oocyte [11] = assay: Activity at recombinant GluA2A4 receptor flop isoform expressed in Xenopus oocytes assessed as potentiation of glutamate-induced current at 5 mM relative to control; assay type: cell-based
[12] = molecular target: Glutamate receptor 1 (Rattus norvegicus) (UniProt P19490); assay: Activity at rat recombinant GluA1 receptor flop isoform expressed in HEK293 cells assessed as potentiation of 3000 uM glutamate-induced current at 100 uM relative to control; assay type: cell-based
Sequence of Glutamate receptor 1 (Rattus norvegicus) (P19490 whole entry, canonical isoform): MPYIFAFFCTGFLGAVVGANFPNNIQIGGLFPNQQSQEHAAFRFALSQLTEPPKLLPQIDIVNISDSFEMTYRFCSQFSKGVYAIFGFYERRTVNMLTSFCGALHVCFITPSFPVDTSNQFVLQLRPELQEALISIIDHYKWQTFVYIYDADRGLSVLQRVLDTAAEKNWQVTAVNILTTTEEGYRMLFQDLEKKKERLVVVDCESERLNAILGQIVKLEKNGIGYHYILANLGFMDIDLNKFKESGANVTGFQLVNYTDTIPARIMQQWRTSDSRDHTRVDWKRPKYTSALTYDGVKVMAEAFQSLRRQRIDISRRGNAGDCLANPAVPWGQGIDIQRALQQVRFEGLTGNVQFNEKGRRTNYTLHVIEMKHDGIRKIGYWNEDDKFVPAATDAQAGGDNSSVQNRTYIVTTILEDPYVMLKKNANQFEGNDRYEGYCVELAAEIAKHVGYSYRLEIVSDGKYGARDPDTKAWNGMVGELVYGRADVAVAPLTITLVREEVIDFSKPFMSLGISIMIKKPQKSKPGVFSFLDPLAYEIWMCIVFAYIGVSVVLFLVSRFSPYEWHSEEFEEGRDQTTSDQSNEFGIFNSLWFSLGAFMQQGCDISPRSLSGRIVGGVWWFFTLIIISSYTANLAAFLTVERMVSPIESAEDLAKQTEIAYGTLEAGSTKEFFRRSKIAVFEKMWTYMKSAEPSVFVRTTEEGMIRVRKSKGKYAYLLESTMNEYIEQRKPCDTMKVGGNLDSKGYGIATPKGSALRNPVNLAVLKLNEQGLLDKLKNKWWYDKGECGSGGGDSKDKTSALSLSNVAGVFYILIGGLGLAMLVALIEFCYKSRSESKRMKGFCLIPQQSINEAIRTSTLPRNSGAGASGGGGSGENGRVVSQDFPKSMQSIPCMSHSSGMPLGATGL

[13] = molecular target: T3, Glutamate receptor ionotropic, AMPA 2/3 (Rattus norvegicus) (UniProt P19491+P19492); assay: Activity at rat recombinant GluA2A3 receptor flop isoform expressed in HEK293 cells assessed as potentiation of 3000 uM glutamate-induced current at 100 uM relative to control; assay type: cell-based
[14] = molecular target: T4, Glutamate receptor AMPA 2/3 (Homo sapiens) (UniProt P42263+P42262); assay: Activity at recombinant GluA2 receptor flop/GluA3 receptor flip isoform expressed in Xenopus oocytes assessed as potentiation of 10 uM AMPA-induced current at 100 uM relative to control; assay type: cell-based; details: Oocyte
[15] = molecular target: T5, Glutamate receptor AMPA 1/2 (Homo sapiens) (UniProt P42262+P42261); assay: Activity at recombinant GluA1A2 receptor flop isoform expressed in Xenopus oocytes assessed as potentiation of 10 uM AMPA-induced current at 100 uM relative to control; assay type: cell-based; details: Oocyte
Glutamate receptor 1 [16] = molecular target: T1, Glutamate receptor 1; assay: Activity at recombinant GluA1 receptor flip isoform expressed in Xenopus oocytes assessed as potentiation of 10 uM AMPA-induced current at 100 uM relative to control; assay type: cell-based; details: Oocyte
Glutamate receptor 3 [17] = molecular target: T2, Glutamate receptor 3; assay: Activity at recombinant GluA3 receptor flip isoform expressed in Xenopus oocytes assessed as potentiation of 10 uM AMPA-induced current at 100 uM relative to control; assay type: cell-based; details: Oocyte
[18] = molecular target: Glutamate receptor 4 (Rattus norvegicus) (UniProt P19493); assay: Activity at rat recombinant GluA4 receptor flop isoform expressed in HEK293 cells assessed as potentiation of 3000 uM glutamate-induced current at 100 uM relative to control; assay type: cell-based
Sequence of Glutamate receptor 4 (Rattus norvegicus) (P19493 whole entry, canonical isoform): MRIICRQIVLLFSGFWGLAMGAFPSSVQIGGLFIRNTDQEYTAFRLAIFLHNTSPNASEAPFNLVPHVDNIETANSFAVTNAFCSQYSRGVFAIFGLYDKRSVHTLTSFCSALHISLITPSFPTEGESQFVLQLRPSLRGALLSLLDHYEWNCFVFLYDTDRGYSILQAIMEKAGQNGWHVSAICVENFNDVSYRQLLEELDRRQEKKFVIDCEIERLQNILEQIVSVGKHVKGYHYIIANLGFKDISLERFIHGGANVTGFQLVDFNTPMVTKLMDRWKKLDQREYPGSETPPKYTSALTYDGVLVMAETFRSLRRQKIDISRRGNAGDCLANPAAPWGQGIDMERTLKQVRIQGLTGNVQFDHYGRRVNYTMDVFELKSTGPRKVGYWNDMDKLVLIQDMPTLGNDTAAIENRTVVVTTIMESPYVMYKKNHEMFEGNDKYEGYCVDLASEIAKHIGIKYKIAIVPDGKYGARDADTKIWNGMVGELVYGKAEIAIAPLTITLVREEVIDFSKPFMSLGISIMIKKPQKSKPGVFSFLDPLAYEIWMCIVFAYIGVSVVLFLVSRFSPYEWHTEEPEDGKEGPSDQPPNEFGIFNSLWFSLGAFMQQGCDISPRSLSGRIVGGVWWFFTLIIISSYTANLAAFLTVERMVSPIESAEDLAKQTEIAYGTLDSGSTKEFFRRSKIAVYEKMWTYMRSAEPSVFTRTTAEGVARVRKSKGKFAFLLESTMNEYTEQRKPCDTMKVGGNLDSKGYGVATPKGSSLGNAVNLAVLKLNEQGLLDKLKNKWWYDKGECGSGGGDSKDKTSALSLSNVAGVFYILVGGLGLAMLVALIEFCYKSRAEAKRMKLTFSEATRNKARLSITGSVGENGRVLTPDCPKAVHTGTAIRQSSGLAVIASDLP

[19] = molecular target: T5, Glutamate receptor AMPA 1/2 (Homo sapiens); assay: Activity at recombinant GluA1 receptor flip/GluA2 receptor flop isoform expressed in Xenopus oocytes assessed as potentiation of 10 uM AMPA-induced current at 100 uM relative to control; assay type: cell-based; details: Oocyte
[20] = molecular target: T6, Glutamate receptor AMPA 2/4 (Rattus norvegicus) (UniProt P19491+P19493); assay: Activity at rat recombinant GluA2A4 receptor flip isoform expressed in HEK293 cells assessed as potentiation of 3000 uM glutamate-induced current at 100 uM relative to control; assay type: cell-based
[21] = molecular target: Glutamate receptor 1 (Rattus norvegicus) (UniProt P19490); assay: Activity at rat recombinant GluA1 receptor flip isoform expressed in HEK293 cells assessed as potentiation of 3000 uM glutamate-induced current at 100 uM relative to control; assay type: cell-based
[22] = molecular target: T4, Glutamate receptor AMPA 2/3 (Homo sapiens); assay: Activity at recombinant GluA2A3 receptor flop isoform expressed in Xenopus oocytes assessed as potentiation of 10 uM AMPA-induced current at 100 uM relative to control; assay type: cell-based; details: Oocyte
[23] = molecular target: T7, Glutamate receptor AMPA 1/2 (Rattus norvegicus) (UniProt P19491+P19490); assay: Activity at rat recombinant GluA1A2 receptor flop isoform expressed in HEK293 cells assessed as potentiation of 3000 uM glutamate-induced current at 100 uM relative to control; assay type: cell-based
Glutamate receptor 3 [24] = molecular target: T2, Glutamate receptor 3; assay: Activity at recombinant GluA3 receptor flop isoform expressed in Xenopus oocytes assessed as potentiation of 10 uM AMPA-induced current at 100 uM relative to control; assay type: cell-based; details: Oocyte
[25] = molecular target: T6, Glutamate receptor AMPA 2/4 (Rattus norvegicus); assay: Activity at rat recombinant GluA2A4 receptor flop isoform expressed in HEK293 cells assessed as potentiation of 3000 uM glutamate-induced current at 100 uM relative to control; assay type: cell-based
[26] = molecular target: Glutamate receptor 3 (Rattus norvegicus) (UniProt P19492); assay: Activity at rat recombinant GluA3 receptor flop isoform expressed in HEK293 cells assessed as potentiation of 3000 uM glutamate-induced current at 100 uM relative to control; assay type: cell-based
Sequence of Glutamate receptor 3 (Rattus norvegicus) (P19492 whole entry, canonical isoform): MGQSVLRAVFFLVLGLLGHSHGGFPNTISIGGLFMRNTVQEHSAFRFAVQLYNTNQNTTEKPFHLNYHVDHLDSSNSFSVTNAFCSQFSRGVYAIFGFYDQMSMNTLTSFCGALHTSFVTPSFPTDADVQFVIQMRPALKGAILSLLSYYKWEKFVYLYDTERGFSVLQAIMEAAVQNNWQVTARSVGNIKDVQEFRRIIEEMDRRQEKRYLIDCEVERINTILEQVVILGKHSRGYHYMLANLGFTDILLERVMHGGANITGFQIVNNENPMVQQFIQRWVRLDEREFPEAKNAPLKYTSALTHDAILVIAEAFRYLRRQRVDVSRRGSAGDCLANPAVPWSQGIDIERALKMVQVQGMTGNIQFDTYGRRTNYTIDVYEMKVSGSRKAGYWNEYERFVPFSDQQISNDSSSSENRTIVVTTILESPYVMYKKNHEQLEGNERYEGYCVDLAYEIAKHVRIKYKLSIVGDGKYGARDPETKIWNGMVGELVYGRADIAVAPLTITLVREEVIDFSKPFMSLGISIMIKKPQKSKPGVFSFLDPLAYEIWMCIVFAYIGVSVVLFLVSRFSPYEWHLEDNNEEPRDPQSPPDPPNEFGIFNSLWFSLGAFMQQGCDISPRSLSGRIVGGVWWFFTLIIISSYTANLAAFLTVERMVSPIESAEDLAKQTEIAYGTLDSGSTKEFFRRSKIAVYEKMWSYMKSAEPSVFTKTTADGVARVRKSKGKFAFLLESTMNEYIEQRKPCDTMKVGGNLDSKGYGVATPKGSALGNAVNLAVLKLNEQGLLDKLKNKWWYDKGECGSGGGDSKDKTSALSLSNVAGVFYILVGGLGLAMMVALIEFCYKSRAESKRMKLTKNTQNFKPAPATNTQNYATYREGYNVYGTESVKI

[27] = molecular target: T7, Glutamate receptor AMPA 1/2 (Rattus norvegicus); assay: Activity at rat recombinant GluA1A2 receptor flip isoform expressed in HEK293 cells assessed as potentiation of 3000 uM glutamate-induced current at 100 uM relative to control; assay type: cell-based
[28] = molecular target: Glutamate receptor 4 (Rattus norvegicus) (UniProt P19493); assay: Activity at rat recombinant GluA4 receptor flip isoform expressed in HEK293 cells assessed as potentiation of 3000 uM glutamate-induced current at 100 uM relative to control; assay type: cell-based
[29] = molecular target: Glutamate receptor 3 (Rattus norvegicus) (UniProt P19492); assay: Activity at rat recombinant GluA3 receptor flip isoform expressed in HEK293 cells assessed as potentiation of 3000 uM glutamate-induced current at 100 uM relative to control; assay type: cell-based
[30] = molecular target: T3, Glutamate receptor ionotropic, AMPA 2/3 (Rattus norvegicus); assay: Activity at rat recombinant GluA2A3 receptor flip isoform expressed in HEK293 cells assessed as potentiation of 3000 uM glutamate-induced current at 100 uM relative to control; assay type: cell-based
[31] = molecular target: T4, Glutamate receptor AMPA 2/3 (Homo sapiens); assay: Activity at recombinant GluA2 receptor flip/GluA3 receptor flop isoform expressed in Xenopus oocytes assessed as potentiation of 10 uM AMPA-induced current at 100 uM relative to control; assay type: cell-based; details: Oocyte
[32] = molecular target: T5, Glutamate receptor AMPA 1/2 (Homo sapiens); assay: Activity at recombinant GluA1 receptor flop/GluA2 receptor flip isoform expressed in Xenopus oocytes assessed as potentiation of 10 uM AMPA-induced current at 100 uM relative to control; assay type: cell-based; details: Oocyte
Glutamate receptor 1 [33] = molecular target: T1, Glutamate receptor 1; assay: Activity at recombinant GluA1 receptor flop isoform expressed in Xenopus oocytes assessed as potentiation of 10 uM AMPA-induced current at 100 uM relative to control; assay type: cell-based; details: Oocyte
Glutamate receptor 3 [34] = molecular target: T8, Glutamate receptor 3 (Rattus norvegicus, UniProt P19492); assay: Agonist activity at rat recombinant GluA3 receptor flop isoform expressed in Xenopus oocytes; assay type: functional, cell-based, Oocyte
T8 sequence (P19492 whole entry, canonical isoform): as above

Glutamate receptor 1 [35] = molecular target: T9, Glutamate receptor 1 (Rattus norvegicus, UniProt P19490); assay: Agonist activity at rat recombinant GluA1 receptor expressed in Xenopus oocytes; assay type: functional, cell-based, Oocyte
T9 sequence (P19490 whole entry, canonical isoform): as the sequence (P19490 whole entry, canonical isoform) above

Glutamate receptor 1 [36] = molecular target: T9, Glutamate receptor 1; assay: Agonist activity at rat recombinant GluA1 receptor flop isoform expressed in Xenopus oocytes; assay type: functional, cell-based, Oocyte
Glutamate receptor 3 [37] = molecular target: T8, Glutamate receptor 3; assay: Agonist activity at rat recombinant GluA3 receptor expressed in Xenopus oocytes; assay type: functional, cell-based, Oocyte

T1 sequence (P42261 whole entry, canonical isoform): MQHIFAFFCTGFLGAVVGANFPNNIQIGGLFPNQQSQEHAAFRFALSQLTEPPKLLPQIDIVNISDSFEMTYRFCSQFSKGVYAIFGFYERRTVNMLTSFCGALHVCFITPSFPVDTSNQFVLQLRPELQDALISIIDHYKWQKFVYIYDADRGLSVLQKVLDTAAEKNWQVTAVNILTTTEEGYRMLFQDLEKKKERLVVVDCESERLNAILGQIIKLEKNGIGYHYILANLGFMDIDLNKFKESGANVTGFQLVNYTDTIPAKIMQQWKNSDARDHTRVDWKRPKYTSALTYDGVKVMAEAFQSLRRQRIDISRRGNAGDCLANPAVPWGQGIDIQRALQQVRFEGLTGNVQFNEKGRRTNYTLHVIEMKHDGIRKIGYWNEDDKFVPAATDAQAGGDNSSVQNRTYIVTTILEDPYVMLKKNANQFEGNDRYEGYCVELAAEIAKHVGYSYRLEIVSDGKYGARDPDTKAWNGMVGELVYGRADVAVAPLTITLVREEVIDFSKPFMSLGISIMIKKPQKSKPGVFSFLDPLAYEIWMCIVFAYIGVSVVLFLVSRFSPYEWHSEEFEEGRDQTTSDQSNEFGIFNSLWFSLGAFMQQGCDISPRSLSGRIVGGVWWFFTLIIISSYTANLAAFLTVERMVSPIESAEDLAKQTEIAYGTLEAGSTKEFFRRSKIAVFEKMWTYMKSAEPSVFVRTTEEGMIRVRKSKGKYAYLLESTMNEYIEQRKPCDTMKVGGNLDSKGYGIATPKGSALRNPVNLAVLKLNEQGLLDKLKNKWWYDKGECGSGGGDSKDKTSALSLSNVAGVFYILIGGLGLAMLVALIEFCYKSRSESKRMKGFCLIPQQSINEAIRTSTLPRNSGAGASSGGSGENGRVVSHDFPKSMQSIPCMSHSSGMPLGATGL

## N[C@@H](Cn1cc(F)c(=O)[nH]c1=O)C(=O)O
Glutamate receptor 1 [1]
  EC50: 382 nM
Glutamate receptor 3 [2]
  EC50: 20900 nM
Glutamate receptor 3 [3]
  EC50: 20900 nM
Glutamate receptor 1 [4]
  EC50: 380 nM
[5]
  EC50: 11900 nM

## Cc1onc(C(=O)O)c1C[C@H](N)C(=O)O
Glutamate receptor 1 [6]
  EC50: 270 nM
Glutamate receptor 3 [7]
  EC50: 1600 nM
[8]
  EC50: 1700 nM

## N#Cc1cc2c(cc1[N+](=O)[O-])=NC(=O)C(=O)N=2
[9]
  Kb: 501 nM

## COc1ccc(C(=O)N2CCCC2=O)cc1
Oocyte [10]
  fold change (FC): 7.5
Oocyte [11]
  fold change (FC): 77

## NC(=O)COc1c(F)cc(SCCNS(=O)(=O)c2ccccc2)cc1F
[12]
  fold change (FC): 2.9
[13]
  fold change (FC): 138
[14]
  fold change (FC): 4.78
[15]
  fold change (FC): 7.44
Glutamate receptor 1 [16]
  fold change (FC): 1.9
Glutamate receptor 3 [17]
  fold change (FC): 2.51
[18]
  fold change (FC): 75
[19]
  fold change (FC): 20.1
[20]
  fold change (FC): 10
[21]
  fold change (FC): 1.9
[22]
  fold change (FC): 21.1
[23]
  fold change (FC): 124
Glutamate receptor 3 [24]
  fold change (FC): 11.1
[25]
  fold change (FC): 74
[26]
  fold change (FC): 11.1
[27]
  fold change (FC): 20
[28]
  fold change (FC): 11
[29]
  fold change (FC): 2.51
[30]
  fold change (FC): 28
[31]
  fold change (FC): 8.85
[32]
  fold change (FC): 9.49
Glutamate receptor 1 [33]
  fold change (FC): 2.9

## NC(Cc1ccc(=O)[nH][n+]1[O-])C(=O)O (racemic)
Glutamate receptor 1 [1]
  EC50: 258 nM
Glutamate receptor 3 [2]
  EC50: 41600 nM
Glutamate receptor 3 [3]
  EC50: 41600 nM
Glutamate receptor 1 [4]
  EC50: 260 nM

## Cc1onc(C(=O)O)c1CC(N)C(=O)O (racemic)
Glutamate receptor 3 [34]
  EC50: 100 nM
Glutamate receptor 1 [35]
  EC50: 1100 nM
Glutamate receptor 1 [36]
  EC50: 1100 nM
Glutamate receptor 3 [37]
  EC50: 100 nM
